Test results as given in US9029322B2, “Compounds for enhancing p21 expression and methods of use thereof” (Cornell University, priority 2007, dated 2015).

Experiments:
[1] = tested on: arylhydrocarbon receptor (AHR); test: Microarray gene analysis on spinal cord tissue RNA after intraperitoneal dosing; assay type: in vivo, rats
Protocol: Based on available dosing data, rats were dosed with 1, 5, 10, 15 or 30 mg/kg ciclopirox (intraperiotoneal; 3 animals per concentration). Spinal cord, liver and skeletal muscle tissue was harvested 6-hours after drug delivery. Real-time rt-PCR was performed on RNA extracted from tissues to examine the expression of p21waf1/cip1, arginase-1, and VEGF in order to determine what might be the most efficacious dose.
Microarray gene analysis was also performed on spinal cord tissue RNA to determine gene expression changes that correlate with treatment and dose in an unbiased manner.

[2] = tested on: contusion injury at the level of T-8; test: Spinal cord contusion injury, single injection after injury; assay type: in vivo, rats
[3] = tested on: mouse or human p21 promoter; test: p21-luciferase reporter screen in stably transfected HT22 cells; assay type: cell-based; conditions: HT22 lines stably expressing p21-luciferase; positive control
Protocol: To identify novel activators of p21, fragments of the mouse or human p21 promoter were subcloned into the pGL3 basic promoter-reporter construct (see promoter sequence information). The resultant p21-luciferase reporter plasmids were each then stably transfected into a mouse hippocampal cell line, HT22. […] Drugs were added to cells stably expressing p21-luciferase in a 96 well format. The HDAC inhibitor trichostatin A was used as a positive control. After 12 hours of drug treatment, the cells were lysed and luciferase activity was measured using a desktop luminometer. Cell viability was monitored in parallel, so that agents that induce toxicity can quickly be eliminated. Secondary screens including real time PCR or Western blots of p21 were monitored in primary neurons.

AHR gene expression change in spinal cord (microarray) ([1]; rats, 1, 5, 10, 15 or 30 mg/kg intraperitoneal, tissue harvested 6 hours after drug delivery) | blood brain barrier penetration ([1]; rats, intraperitoneal, inferred from spinal cord gene expression changes) | SMILES | induction of transcription in the spinal cord ([1]; rats, intraperitoneal, in vivo) | protection (lesion volume) ([2]; single 30 mg/kg intraperitoneal injection 30 minutes after contusion injury at T-8) | effect on behavior (functional improvement) ([2]; single injection after injury) | p21-luciferase response [3]
dose-dependent ciclopirox-regulated gene | could penetrate the blood brain barrier | Cc1cc(C2CCCCC2)n(O)c(=O)c1 [ciclopirox] | could induce transcription in the spinal cord | significant protection (reduced lesion volume) | little functional improvement | 
 |  | CC(/C=C/C(=O)NO)=C\[C@@H](C)C(=O)c1ccc(N(C)C)cc1 [trichostatin A] |  |  |  | predicted increases in p21-luciferase
